The record followed here is patent US6287794A, “Factor Vlla inhibitors” (Aventis Pharma Deutschland GmbH, priority 1998, dated 2001).

By Ki is commonly meant the equilibrium dissociation constant of an inhibitor or competing ligand from its target.

The test concerns the target T1, human factor VIIa and TF (Homo sapiens, UniProt P08709).
T1 construct: human factor VIIa and TF
Description: Determination of Ki for FVIIa inhibition (chromogenic assay, substrate S-2288). The format is biochemical. Conditions: human factor VIIa 5 nM and TF 10 nM, S-2288 500 μM, 25° C., 15 minute preincubation, pH 8.15; read-out: Factor VIIa inhibitory activities Ki. The procedure:
The inhibitory activity (Ki) of each compound towards […] activity was determined using a chromogenic assay essentially as described previously. J. A. Ostrem, F. Al-Obeidi, P. Safar, A. Safarova, S. K. Stringer, M. Patek, M. T. Cross, J. Spoonamore, J. C. LoCascio, P. Kasireddy, D. S. Thorpe, N. Sepetov, M. Lebi, P. Wildgoose, P. Strop, "Discovery of a novel, potent, and specific family of factor Xa inhibitors via combinatorial chemistry". Biochemistry 37 (1998) 1053-1059. Kinetic assays were conducted at 25° C. in half-area microtiter plates (Costar Corp., Cambridge, Mass.) using a kinetic plate reader (Molecular Devices Spectramax 250). A typical assay consisted of 25 μl of human factor VIIa and TF (5 nM and 10 nM, respective final concentration) combined with 40 μl of inhibitor dilutions in 10% DMSO/TBS-PEG buffer (50 mM Tris, 15 mM NaCl, 5 mM CaCl2; 0.05% PEG 8k, pH 8.15). Following a 15 minute preincubation period, the assay was initiated by the addition of 35 μl of the chromogenic substrate S-2288 (D-Ile-Pro-Arg-pNA, Pharmacia Hepar Inc, 500 μM final concentration.). The apparent inhibition constants were calculated from the slope of the progress curves during the linear part of the time course, typically between 1 and 5 min following addition of substrate to the assay. The true Ki was subsequently determined for each compound by correcting for substrate concentration (S) and the Km using the formula Ki=Ki app/(1+(S)/Km). I. H. Segal, Enzyme Kinetics, pp 100-125 (John Wiley & Sons, N.Y., 1975).

Starred links: 1 amine or outer side, 2 acyl side, 3 side chain; linkers in the order of their positions; H or OH if unused. Non-standard residues stand in square brackets, D forms with d. Residues, ends and D or L forms follow the SMILES beside them. *: point of attachment. dPhe(4-guanidino) = N=C(N)Nc1ccc(C[C@@H](N)C(=O)O)cc1; Phe(4-NO2) = N[C@@H](Cc1ccc([N+](=O)[O-])cc1)C(=O)O; Phe(4-guanidino) = N=C(N)Nc1ccc(C[C@H](N)C(=O)O)cc1; Phe(4-amidino) = N=C(N)c1ccc(C[C@H](N)C(=O)O)cc1; Orn(acetimidoyl) = CC(=N)NCCC[C@H](N)C(=O)O; d(hArg) = N=C(N)NCCCC[C@@H](N)C(=O)O; Cha = N[C@@H](CC1CCCCC1)C(=O)O; Agb = N=C(N)NCC[C@H](N)C(=O)O; Phg = N[C@H](C(=O)O)c1ccccc1; Dab = NCC[C@H](N)C(=O)O; CO = O=C([*:1])[*:2]; Alloc = C=CCOC(=O)*; Bn = c1ccc(C*)cc1; NHAllyl = C=CCN*

T1 sequence (P08709 213-466 limits assumed): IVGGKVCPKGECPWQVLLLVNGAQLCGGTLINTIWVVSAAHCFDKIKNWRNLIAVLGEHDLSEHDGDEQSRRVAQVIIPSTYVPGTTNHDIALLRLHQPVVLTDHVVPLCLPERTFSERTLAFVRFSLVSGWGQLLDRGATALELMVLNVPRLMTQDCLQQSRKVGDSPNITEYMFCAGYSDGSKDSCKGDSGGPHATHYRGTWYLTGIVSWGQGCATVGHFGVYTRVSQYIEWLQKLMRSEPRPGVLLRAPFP
T1 sequence (P08709 61-212 limits assumed): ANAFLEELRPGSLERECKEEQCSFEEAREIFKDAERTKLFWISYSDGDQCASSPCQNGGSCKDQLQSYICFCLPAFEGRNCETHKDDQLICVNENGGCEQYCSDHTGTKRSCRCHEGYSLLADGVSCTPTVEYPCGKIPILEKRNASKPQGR
T1 sequence (P13726 33-295 partner): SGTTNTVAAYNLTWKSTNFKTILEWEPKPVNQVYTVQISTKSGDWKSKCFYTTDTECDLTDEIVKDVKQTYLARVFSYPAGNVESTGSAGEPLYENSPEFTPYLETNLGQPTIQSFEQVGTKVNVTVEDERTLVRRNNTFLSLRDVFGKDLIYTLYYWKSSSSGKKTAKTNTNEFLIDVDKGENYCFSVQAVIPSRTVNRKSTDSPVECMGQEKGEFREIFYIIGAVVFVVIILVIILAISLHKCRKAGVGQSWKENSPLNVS

For `C=CCOC(=O)N[C@@H](Cc1ccc(C(=N)N)cc1)C(=O)N[C@@H](CCC(=O)O)C(=O)N[C@@H](CSCc1ccccc1)C(=O)N[C@@H](CC1CCCCC1)C(N)=O` [Alloc--pAph--Glu--Cys(Bzl)--Cha--NH2] (Alloc-[Phe(4-amidino)]EC(Bn)[Cha]-NH2), the inhibition constant (Ki) turned out to be 26 nM.

As for `C=CCOC(=O)N[C@@H](Cc1ccc(C(=N)N)cc1)C(=O)N[C@@H](CCC(=O)O)C(=O)N[C@@H](CSC)C(=O)N[C@@H](CC1CCCCC1)C(N)=O` [Alloc--pAph--Glu--Cys(Me)--Cha--NH2] (Alloc-[Phe(4-amidino)]EC(Me)[Cha]-NH2), the inhibitory constant (Ki) stood at 200 nM.

With `C=CCOC(=O)N[C@@H](Cc1ccc(C(=N)N)cc1)C(=O)N[C@@H](CCC(=O)O)C(=O)N[C@H](CCCNC(=N)N)C(=O)N[C@@H](CC1CCCCC1)C(N)=O` [Alloc--pAph--Glu--D--Arg--Cha--NH2] (Alloc-[Phe(4-amidino)]E[dR][Cha]-NH2), the Ki is 12000 nM.

Turning to `C=CCOC(=O)N[C@@H](Cc1ccc(C(=N)N)cc1)C(=O)N[C@@H](CCC(=O)O)C(=O)N[C@H](CCCCNC(=N)N)C(=O)N[C@@H](CC1CCCCC1)C(N)=O` [Alloc--pAph--Glu--D--Lys[--C(=NH)--NH2]--Cha--NH2] (Alloc-[Phe(4-amidino)]E[d(hArg)][Cha]-NH2), the inhibitory constant (Ki) is 22000 nM.

As to `C=CCOC(=O)N[C@@H](Cc1ccc(C(=N)N)cc1)C(=O)N[C@@H](CCC(=O)O)C(=O)N[C@H](Cc1ccc(NC(=N)N)cc1)C(=O)N[C@@H](CC1CCCCC1)C(N)=O` [Alloc--pAph--Glu--D--Phe(4-guanidino)--Cha--NH2] (Alloc-[Phe(4-amidino)]E[dPhe(4-guanidino)][Cha]-NH2), the Ki came out at 11300 nM.

With `C=CCOC(=O)NCC[C@H](NC(=O)[C@H](CCC(=O)O)NC(=O)[C@H](Cc1ccc(C(=N)N)cc1)NC(=O)OCC=C)C(=O)N[C@@H](CC1CCCCC1)C(N)=O` [Alloc--pAph--Glu--Dab(Alloc)--Cha--NH2] (Alloc-[Phe(4-amidino)]E[Dab](Alloc)[Cha]-NH2), the inhibitory constant (Ki) is 150 nM.

For `C=CCOC(=O)N[C@@H](Cc1ccc(C(=N)N)cc1)C(=O)N[C@@H](CCC(=O)O)C(=O)N[C@@H](CCN)C(=O)N[C@@H](CC1CCCCC1)C(N)=O` [Alloc--pAph--Glu--Dab--Cha--NH2, Alloc-pAph-Glu-Dab-Cha-NH2] (Alloc-[Phe(4-amidino)]E[Dab][Cha]-NH2), the Ki was determined as 55 nM.

In the case of `C=CCOC(=O)N[C@@H](Cc1ccc(C(=N)N)cc1)C(=O)N[C@@H](CCC(=O)O)C(=O)N[C@@H](CCN)C(=O)NCCc1ccccc1` [Alloc--pAph--Glu--Dab--NH--(CH2)2 --Ph, Alloc-pAph-Glu-Dab-NH--CH2 --CH2 --Ph], the Ki was found to be 380 nM.

Turning to `C=CCOC(=O)N[C@@H](Cc1ccc(C(=N)N)cc1)C(=O)N[C@@H](CCC(=O)O)C(=O)N[C@@H](CCNC(C)=N)C(=O)N[C@@H](CC1CCCCC1)C(N)=O` [Alloc--pAph--Glu--Dab[--C(=NH)--CH3]--Cha--NH2], the Ki was 190 nM.

In the case of `C=CCOC(=O)N[C@@H](Cc1ccc(C(=N)N)cc1)C(=O)N[C@@H](CCC(=O)O)C(=O)N[C@@H](CCNC(=N)N)C(=O)N[C@@H](CC1CCCCC1)C(N)=O` [Alloc--pAph--Glu--Dab[--C(=NH)--NH2]--Cha--NH2] (Alloc-[Phe(4-amidino)]E[Agb][Cha]-NH2), the inhibition constant Ki is 12 nM.

Take `C=CCOC(=O)N[C@@H](Cc1ccc(C(=N)N)cc1)C(=O)N[C@@H](CCC(=O)O)C(=O)N[C@@H](CNC(=N)N)C(N)=O` [Alloc--pAph--Glu--Dap[--C(=NH)--NH2]--NH2]: the Ki was 260 nM.

For `C=CCOC(=O)N[C@@H](Cc1ccc(C(=N)N)cc1)C(=O)N[C@@H](CCC(=O)O)C(=O)N[C@@H](CNC(=N)N)C(=O)N[C@@H](Cc1ccc(C2(c3ccccc3)SCCS2)cc1)C(N)=O` [Alloc--pAph--Glu--Dap[--C(=NH)--NH2]--Phe[4-C(--S--(CH2)2 --S--)--Ph]--NH2], the Ki was found to be 15 nM.

For `C=CCOC(=O)N[C@@H](Cc1ccc(C(=N)N)cc1)C(=O)N[C@@H](CCC(=O)O)C(=O)N[C@@H](CCC(N)=O)C(N)=O` [Alloc--pAph--Glu--Gln--NH2], the Ki was 1500 nM.

Consider `C=CCOC(=O)N[C@@H](Cc1ccc(C(=N)N)cc1)C(=O)N[C@@H](CCC(=O)O)C(=O)NCC(=O)N[C@@H](CC1CCCCC1)C(N)=O` [Alloc--pAph--Glu--Gly--Cha--NH2, Alloc-pAph-Glu-Gly-Cha-NH2] (Alloc-[Phe(4-amidino)]EG[Cha]-NH2), for which the Ki is 120 nM.

As to `C=CCOC(=O)N[C@@H](Cc1ccc(C(=N)N)cc1)C(=O)N[C@@H](CCC(=O)O)C(=O)N[C@@H](Cc1c[nH]cn1)C(=O)N[C@@H](CC1CCCCC1)C(N)=O` [Alloc--pAph--Glu--His--Cha--NH2] (Alloc-[Phe(4-amidino)]EH[Cha]-NH2), the Ki was found to be 140 nM.

Regarding `C=CCOC(=O)N[C@@H](Cc1ccc(C(=N)N)cc1)C(=O)N[C@@H](CCC(=O)O)C(=O)N[C@@H](CCSC)C(=O)N[C@@H](CC1CCCCC1)C(N)=O` [Alloc--pAph--Glu--Met--Cha--NH2] (Alloc-[Phe(4-amidino)]EM[Cha]-NH2), the Ki stood at 110 nM.

For the molecule `C=CCOC(=O)N[C@@H](Cc1ccc(C(=N)N)cc1)C(=O)N[C@@H](CCC(=O)O)C(=O)N[C@@H](CCCN)C(N)=O` [Alloc--pAph--Glu--Orn--NH2], the Ki worked out at 6200 nM.

On to `C=CCOC(=O)N[C@@H](Cc1ccc(C(=N)N)cc1)C(=O)N[C@@H](CCC(=O)O)C(=O)N[C@@H](CCCNC(C)=N)C(=O)N[C@@H](CC1CCCCC1)C(N)=O` [Alloc--pAph--Glu--Orn[--C(=NH)--CH3]--Cha--NH2] (Alloc-[Phe(4-amidino)]E[Orn(acetimidoyl)][Cha]-NH2), for which the Ki came to 130 nM.

For `C=CCOC(=O)N[C@@H](Cc1ccc(C(=N)N)cc1)C(=O)N[C@@H](CCC(=O)O)C(=O)N[C@@H](Cc1ccc([N+](=O)[O-])cc1)C(=O)N[C@@H](CC1CCCCC1)C(N)=O` [Alloc--pAph--Glu--Phe(4-NO2)--Cha--NH2] (Alloc-[Phe(4-amidino)]E[Phe(4-NO2)][Cha]-NH2), the Ki came to 46 nM.

For the molecule `C=CCOC(=O)N[C@@H](Cc1ccc(C(=N)N)cc1)C(=O)N[C@@H](CCC(=O)O)C(=O)N[C@H](C(=O)N[C@@H](CC1CCCCC1)C(N)=O)c1ccccc1` [Alloc--pAph--Glu--Phg--Cha--NH2] (Alloc-[Phe(4-amidino)]E[Phg][Cha]-NH2), the inhibitory constant (Ki) was 17 nM.

As for `C=CCOC(=O)N[C@@H](Cc1ccc(C(=N)N)cc1)C(=O)N[C@@H](CCC(=O)O)C(=O)N[C@H](C(=O)N[C@@H](CC1CCCCC1)C(N)=O)[C@@H](C)OCc1ccccc1` [Alloc--pAph--Glu--Thr(Bzl)--Cha--NH2] (Alloc-[Phe(4-amidino)]ET(Bn)[Cha]-NH2), the Ki came to 19 nM.

Turning to `C=CCOC(=O)N[C@@H](Cc1ccc(C(=N)N)cc1)C(=O)N[C@@H](CCC(=O)O)C(=O)N[C@@H](Cc1c[nH]c2ccccc12)C(=O)N[C@@H](CC1CCCCC1)C(N)=O` [Alloc--pAph--Glu--Trp--Cha--NH2] (Alloc-[Phe(4-amidino)]EW[Cha]-NH2), the Ki worked out at 17 nM.

For `C=CCOC(=O)N[C@@H](Cc1ccc(C(=N)N)cc1)C(=O)N[C@@H](CCC(=O)O)C(=O)N[C@@H](CC(=N)N)C(=O)N[C@@H](CC1CCCCC1)C(N)=O` [Alloc-pAph-Glu-Ala[3-C(=NH)--NH2 ]-Cha-NH2], the Ki amounted to 30 nM.

Turning to `C=CCOC(=O)N[C@@H](Cc1ccc(C(=N)N)cc1)C(=O)N[C@@H](CCC(=O)O)C(=O)N[C@@H](CNC(C)=N)C(=O)N[C@@H](CC1CCCCC1)C(N)=O` [Alloc-pAph-Glu-Dap[--C(=NH)--CH3 ]-Cha-NH2], the Ki turned out to be 110 nM.

For the molecule `C=CCOC(=O)N[C@@H](Cc1ccc(C(=N)N)cc1)C(=O)N[C@@H](CCC(=O)O)C(=O)N[C@@H](Cc1ccc(NC(=N)N)cc1)C(=O)N[C@@H](CC1CCCCC1)C(N)=O` [Alloc-pAph-Glu-Phe(4-guanidino)-Cha-NH2] (Alloc-[Phe(4-amidino)]E[Phe(4-guanidino)][Cha]-NH2), the Ki worked out at 120 nM.

For the molecule `C=CCOC(=O)N[C@@H](Cc1ccc(C(=N)N)cc1)C(=O)N[C@@H](CCC(=O)O)C(=O)N[C@H](C(=O)NCCC(c1ccccc1)c1ccccc1)[C@@H](C)OCc1ccccc1` [Alloc-pAph-Glu-Thr(Bzl)-NH--CH2 --CH2 --CH(Ph)2], the Ki was found to be 170 nM.

`C=CCNC(=O)N[C@@H](Cc1ccc(C(=N)N)cc1)C(=O)N[C@@H](CCC(=O)O)C(=O)N[C@@H](CCCNC(=N)N)C(=O)N[C@@H](CC1CCCCC1)C(N)=O` [allyl-NH--C(O)-pAph-Glu-Arg-Cha-NH2] ({NHAllyl-CO}-[Phe(4-amidino)]ER[Cha]-NH2): the Ki amounted to 42 nM.
